# Laboratory results reported in US20250084063A1 (Incyte Corporation, priority 2023, published 2025).
# What was measured:
# Type in all cases: cell-based
# MRGPRX2 [1] = target: T1, MRGPRX2 (Homo sapiens, UniProt Q96LB1); assay: MRGPRX2 FLIPR calcium mobilization assay; set-up: host or cells: CHO-K1; details: CHO-K1 cells stably expressing human MRGPRX2; Ca2+ release, agonist Cortistatin-14 at EC80
# T1 sequence (Q96LB1 1-330): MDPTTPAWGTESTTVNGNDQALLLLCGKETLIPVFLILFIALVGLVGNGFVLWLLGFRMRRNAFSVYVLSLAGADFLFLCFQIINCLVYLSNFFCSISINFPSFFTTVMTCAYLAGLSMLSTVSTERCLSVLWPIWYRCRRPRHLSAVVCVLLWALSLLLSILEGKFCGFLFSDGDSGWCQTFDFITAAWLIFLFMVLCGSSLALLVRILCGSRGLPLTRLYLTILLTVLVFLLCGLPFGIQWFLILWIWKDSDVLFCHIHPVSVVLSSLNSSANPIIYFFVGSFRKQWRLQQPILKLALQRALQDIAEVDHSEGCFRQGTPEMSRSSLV
# Method in brief: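 CHO-K1 cells stably expressing human MRGPRX2, loaded with Calcium 6 dye, pre-incubated 30 min at room temperature with test compound in HBSS/20 mM HEPES pH 7.4. Then challenged with Cortistatin-14 at EC80; baseline-adjusted peak fluorescence over 110 s fitted to a Hill equation for IC50.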
# MRGPRX2 [2] = target: T1, MRGPRX2; assay: MRGPRX2 β-Arrestin assay; set-up: host or cells: PathHunter CHO-K1; details: PathHunter CHO-K1 MRGPRX2 β-Arrestin cell line; agonist Cortistatin 14 0.25 μM
# Excerpt: Example C: MRGPRX2 β-Arrestin Assay
# This assay measures compound inhibition of β-Arrestin recruitment, which is part of the G protein-independent pathway that results from the ligand-activated GPCR phosphorylation by specific GPCR kinases. The PathHunter CHO-K1 MRPGRX2 B-Arrestin Cell line stably expressing ProLink tagged MRGPRX2 and Enzyme Acceptor Tagged B-Arrestin was purchased from Eurofins DiscoverX, (Fremont, CA).
# The cells were maintained in culture medium from the Europhins DiscoverX Cell Culture Kit-107 which includes FBS, hygromycin B and G418. For the assay, the cells were harvested and were resuspended with Cell Plating Reagent 2 (Eurofins DiscoverX). Cells were added 10000 cells in 25 µL/well to a 384-well black cell culture plate (Greiner VWR, Radnor, PA) which contained 125 nL/well of compound at a selected serially diluted concentration range or DMSO. The plate was incubated at 37° C. with 5% CO2 for 1 h. 2 μL/well of agonist Cortistatin 14 was diluted in Protein Dilution Buffer, (Eurofins DiscoverX) for a final concentration of 0.25 μM, was added and the plate was incubated at 37° C. with 5% CO2 for 90 min. 14 μL/well of Detection Reagent Mix (PathHunter Detection Kit, Eurofins DiscoverX) was added to the plates and further incubated for 1 h in the dark. Plates were read on the PHERAstar microplate reader (BMG Labtech Cary, NC) measuring luminescence 0.1 to 1 second per well. Data was normalized using DMSO only wells and wells with high concentration of reference antagonist as controls. Compound IC50 curves were globally fitted with 3- or 4-parameter Hill equation in a Genedata Screener (Genedata Basel, Switzerland).
# MRGPRX2 [3] = target: T1, MRGPRX2; assay: MRGPRX2 IP1 HTRF assay; set-up: host or cells: CHO-K1; details: CHO-K1 cells stably expressing human MRGPRX2; IP1 accumulation, agonist Cortistatin 14 1 μM
IC50 (MRGPRX2 [1]) [µM],IC50 (MRGPRX2 [2]) [µM],IC50 (MRGPRX2 [3]) [µM],Structure (SMILES)
0.0001 to 0.1,0.0001 to 0.1,0.0001 to 0.1,"N#CN=C(N)N1CC(CNc2cc(C(F)(F)F)nc3ccc(Cl)cc23)(c2ccc(F)cc2)C1 [Example 7, 3-(((6-Chloro-2-(trifluoromethyl)quinolin-4-yl)amino)methyl)-N′-cyano-3-(4-fluorophenyl)azetidine-1-carboximidamide]"
0.0001 to 0.1,0.0001 to 0.1,0.0001 to 0.1,"NC(=O)N1CCC(CNc2cc(C(F)(F)F)nc3ccc(Cl)cc23)(c2ccc(F)cn2)C1 (stereo not drawn) [Example 20, 3-(((6-Chloro-2-(trifluoromethyl)quinolin-4-yl)amino)methyl)-3-(5-fluoropyridin-2-yl) pyrrolidine-1-carboxamide]"
0.0001 to 0.1,0.0001 to 0.1,0.0001 to 0.1,"NS(=O)(=O)N1CC(CNc2cc(C(F)(F)F)nc3ccc(Cl)cc23)(c2ccccc2)C1 [Example 38, 3-(((6-Chloro-2-(trifluoromethyl)quinolin-4-yl)amino)methyl)-3-phenylazetidine-1-sulfonamide]"
0.0001 to 0.1,0.0001 to 0.1,0.0001 to 0.1,"N#CN=C(N)N1CCC(CNc2cc(C(F)(F)F)nc3ccc(Cl)cc23)(c2ccccc2)CC1 [Example 9, 4-(((6-Chloro-2-(trifluoromethyl)quinolin-4-yl)amino)methyl)-N′-cyano-4-phenylpiperidine-1-carboximidamide]"
0.0001 to 0.1,0.0001 to 0.1,0.0001 to 0.1,"NS(=O)(=O)N1CCC(CNc2cc(C(F)(F)F)nc3ccc(F)cc23)(c2ccccc2)CC1 [Example 11, 4-(((6-Fluoro-2-(trifluoromethyl)quinolin-4-yl)amino)methyl)-4-phenylpiperidine-1-sulfonamide]"
0.0001 to 0.1,0.0001 to 0.1,0.0001 to 0.1,"Nc1ccc(N2CCC(CNc3cc(C(F)(F)F)nc4ccc(Cl)cc34)(c3ccccc3)CC2)nn1 [Example 78, N-((1-(6-Aminopyridazin-3-yl)-4-phenylpiperidin-4-yl)methyl)-6-chloro-2-(trifluoromethyl)quinolin-4-amine]"
0.0001 to 0.1,0.0001 to 0.1,0.0001 to 0.1,"FC(F)(F)c1cc(NCC2(c3ccccc3)CCOC2)c2cc(Cl)ccc2n1 (stereo not drawn) [Example 16, 6-Chloro-N-((3-phenyltetrahydrofuran-3-yl)methyl)-2-(trifluoromethyl)quinolin-4-amine]"

# Second part, the molecule before the results:
Structure (SMILES),IC50 (MRGPRX2 [1]) [µM],IC50 (MRGPRX2 [2]) [µM],IC50 (MRGPRX2 [3]) [µM]
"NS(=O)(=O)N1CC(CNc2cc(C(F)(F)F)nc3ccc(Cl)cc23)(c2ccc(F)cn2)C1 [Example 46, 3-(((6-Chloro-2-(trifluoromethyl)quinolin-4-yl)amino)methyl)-3-(5-fluoropyridin-2-yl)azetidine-1-sulfonamide]",0.0001 to 0.1,0.0001 to 0.1,0.0001 to 0.1
"[2H]C([2H])([2H])NC(=O)N1CC(CNc2cc(C(F)(F)F)nc3ccc(Cl)cc23)(n2ccc(F)n2)C1 [Example 109, 3-(((6-Chloro-2-(trifluoromethyl)quinolin-4-yl)amino)methyl)-3-(3-fluoro-1H-pyrazol-1-yl)-N-(methyl-d3)azetidine-1-carboxamide]",0.0001 to 0.1,0.0001 to 0.1,0.0001 to 0.1
"NS(=O)(=O)N1CC(CNc2cc(C(F)(F)F)nc3ccc(Cl)cc23)(c2ccc(F)cc2)C1 [Example 32, 3-(((6-Chloro-2-(trifluoromethyl)quinolin-4-yl)amino)methyl)-3-(4-fluorophenyl)azetidine-1-sulfonamide]",0.0001 to 0.1,0.0001 to 0.1,0.0001 to 0.1
"Cn1ncc2cc(C3(CNc4cc(C(F)(F)F)nc5ccc(Cl)cc45)CN(S(N)(=O)=O)C3)ccc21 [Example 82, 3-(((6-Chloro-2-(trifluoromethyl)quinolin-4-yl)amino)methyl)-3-(1-methyl-1H-indazol-5-yl)azetidine-1-sulfonamide]",0.0001 to 0.1,0.0001 to 0.1,0.1 to 1
"Fc1ccc(C2(CNc3cc(C(F)(F)F)nc4ccc(Cl)cc34)COCCO2)cc1 (stereo not drawn) [Example 53, 6-Chloro-N-((2-(4-fluorophenyl)-1,4-dioxan-2-yl)methyl)-2-(trifluoromethyl)quinolin-4-amine]",0.0001 to 0.1,0.0001 to 0.1,0.0001 to 0.1
"Cc1ccc2nc(C(F)(F)F)cc(NCC3(c4ccc(F)cc4)CN(S(N)(=O)=O)C3)c2c1 [Example 2, 3-(4-Fluorophenyl)-3-(((6-methyl-2-(trifluoromethyl)quinolin-4-yl)amino)methyl)azetidine-1-sulfonamide]",0.0001 to 0.1,0.0001 to 0.1,0.0001 to 0.1
"NC(=O)N1CC(CNc2cc(C(F)(F)F)nc3ccc(Br)cc23)(c2ccc(F)cn2)C1 [Example 6, 3-(((6-Bromo-2-(trifluoromethyl)quinolin-4-yl)amino)methyl)-3-(5-fluoropyridin-2-yl)azetidine-1-carboxamide]",0.0001 to 0.1,0.0001 to 0.1,0.0001 to 0.1
"NS(=O)(=O)N1CC(CNc2cc(C(F)(F)F)nc3ccc(Cl)cc23)(c2ccc3ccccc3n2)C1 [Example 80, 3-(((6-Chloro-2-(trifluoromethyl)quinolin-4-yl)amino)methyl)-3-(quinolin-2-yl)azetidine-1-sulfonamide]",0.0001 to 0.1,0.1 to 1,0.1 to 1
"O=C(NC1CCC1)N1CC(CNc2cc(C(F)(F)F)nc3ccc(Cl)cc23)(n2cc(F)cn2)C1 [Example 107, 3-(((6-Chloro-2-(trifluoromethyl)quinolin-4-yl)amino)methyl)-N-cyclobutyl-3-(4-fluoro-1H-pyrazol-1-yl)azetidine-1-carboxamide]",0.0001 to 0.1,0.0001 to 0.1,0.0001 to 0.1
"CNC(=O)N1CC(CNc2cc(C(F)(F)F)nc3ccc(Cl)cc23)(n2cc(Cl)cn2)C1 [Example 98, 3-(4-Chloro-1H-pyrazol-1-yl)-3-(((6-chloro-2-(trifluoromethyl)quinolin-4-yl)amino)methyl)-N-methylazetidine-1-carboxamide]",0.0001 to 0.1,0.0001 to 0.1,0.0001 to 0.1
"NC(=O)N1CC(CNc2cc(C(F)(F)F)nc3ccc(Cl)cc23)(n2cc(F)cn2)C1 [Example 28, 3-(((6-Chloro-2-(trifluoromethyl)quinolin-4-yl)amino)methyl)-3-(4-fluoro-1H-pyrazol-1-yl)azetidine-1-carboxamide]",0.0001 to 0.1,0.0001 to 0.1,0.0001 to 0.1
"NS(=O)(=O)N1CC(CNc2cc(C(F)(F)F)nc3ccc(F)cc23)(c2ccc(F)cc2)C1 [Example 23, 3-(((6-Fluoro-2-(trifluoromethyl)quinolin-4-yl)amino)methyl)-3-(4-fluorophenyl)azetidine-1-sulfonamide]",0.0001 to 0.1,0.0001 to 0.1,0.0001 to 0.1
"NS(=O)(=O)N1CC(CNc2cc(C(F)(F)F)nc3ccc(Cl)cc23)(n2cc(F)cn2)C1 [Example 24, 3-(((6-Chloro-2-(trifluoromethyl)quinolin-4-yl)amino)methyl)-3-(4-fluoro-1H-pyrazol-1-yl)azetidine-1-sulfonamide]",0.0001 to 0.1,0.0001 to 0.1,0.0001 to 0.1
"NS(=O)(=O)N1CC(CNc2cc(C(F)(F)F)nc3ccc(Cl)cc23)(n2ccc(F)n2)C1 [Example 18, 3-(((6-Chloro-2-(trifluoromethyl)quinolin-4-yl)amino)methyl)-3-(3-fluoro-1H-pyrazol-1-yl)azetidine-1-sulfonamide]",0.0001 to 0.1,0.0001 to 0.1,0.0001 to 0.1
"NC(=O)N1CC(CNc2cc(C(F)(F)F)nc3ccc(Cl)cc23)(n2cc(Cl)cn2)C1 [Example 37, 3-(4-Chloro-1H-pyrazol-1-yl)-3-(((6-chloro-2-(trifluoromethyl)quinolin-4-yl)amino)methyl)azetidine-1-carboxamide]",0.0001 to 0.1,0.0001 to 0.1,0.0001 to 0.1
"CNC(=O)N1CCC(CNc2cc(C(F)(F)F)nc3ccc(Cl)cc23)(c2ccc(F)cn2)C1 (stereo not drawn) [Example 49, 3-(((6-Chloro-2-(trifluoromethyl)quinolin-4-yl)amino)methyl)-3-(5-fluoropyridin-2-yl)-N-methylpyrrolidine-1-carboxamide]",0.0001 to 0.1,0.0001 to 0.1,0.0001 to 0.1
